According to patent publication US10760052B2, “Method of inhibiting tau phosphorylation” (priority 2012, dated 2020):
Where two headings read alike, the source gives them in different places.

Biological target: T1, mu opiate receptor (MOR) (Rattus norvegicus, UniProt P33535)
T1 construct: from tissue; host or cells: striatum (membrane preparation)
Assay type: biochemical
Settings: for Concentration of FLNA-Binding Compound as Agonist 0.1 μM / Concentration of FLNA-Binding Compound as Agonist 1 μM / Concentration of FLNA-Binding Compound as Agonist 1 μM + BFNA: [35S]GTPγS binding to Gαo in striatal membranes; for Concentration of FLNA-Binding Compound as Agonist 0.1 μM: compound 0.1 μM; for Concentration of FLNA-Binding Compound as Agonist 1 μM: compound 1 μM; for Concentration of FLNA-Binding Compound as Agonist 1 μM + BFNA: compound 1 μM plus 1 μM β-funaltrexamine (MOR antagonist)
Description: To assess the mu opiate receptor (MOR) agonist activity of positive compounds from the FLNA screening, compounds were tested in a [^35S]GTPγS binding assay using striatal membranes. […] This assay measures a functional consequence of receptor occupancy at one of the earliest receptor-mediated events. The assay permits for traditional pharmacological parameters of potency, efficacy and antagonist affinity, with the advantage that agonist measures are not subjected to amplification or other modulation that may occur when analyzing parameters further downstream of the receptor.
Thus, striatal tissue was homogenized in 10 volumes of ice cold 25 mM HEPES buffer, pH 7.4, which contained 1 mM EGTA, 100 mM sucrose, 50 μg/ml leupeptin, 0.04 mM PMSF, 2 μg/ml soybean trypsin inhibitor and 0.2% 2-mercaptoethanol. The homogenates were centrifuged at 800×g for 5 minutes and the supernatants were centrifuged at 49,000×g for 20 minutes.
The resultant striatal membrane preparation (200 μg) was admixed and maintained (incubated) at 30° C. for 5 minutes in reaction buffer as above that additionally contained 1 mM MgCl2 and 0.5 nM [^35S]GTPγS (0.1 μCi/assay, PerkinElmer Life and Analytical Sciences) in a total volume of 250 μl and continued for 5 minutes in the absence or presence of 0.1-10 μM of an assayed compound of interest. The reaction was terminated by dilution with 750 μl of ice-cold reaction buffer that contained 20 mM MgCl2 and 1 mM EGTA and immediate centrifugation at 16,000×g for 5 minutes.
Normal rabbit serum (1 μl) was added to 1 ml of lysate and incubated at 25° C. for 30 minutes. Nonspecific immune complexes were removed by incubation with 25 μl of protein A/G-conjugated agarose beads at 25° C. for 30 minutes followed by centrifugation at 5,000×g at 4° C. for 5 minutes. The supernatant was divided and separately incubated at 25° C. for 30 minutes with antibodies raised against Gαo proteins (1:1,000 dilutions).
The immunocomplexes so formed were collected by incubation at 25° C. for 30 minutes with 40 μl of agarose-conjugated protein A/G beads and centrifugation at 5,000×g at 4° C. for 5 minutes. The pellet was washed and suspended in buffer containing 50 mM Tris-HCl, pH 8.0, and 1% NP-40. The radioactivity in the suspension was determined by liquid scintillation spectrometry.

T1 sequence (P33535 whole entry): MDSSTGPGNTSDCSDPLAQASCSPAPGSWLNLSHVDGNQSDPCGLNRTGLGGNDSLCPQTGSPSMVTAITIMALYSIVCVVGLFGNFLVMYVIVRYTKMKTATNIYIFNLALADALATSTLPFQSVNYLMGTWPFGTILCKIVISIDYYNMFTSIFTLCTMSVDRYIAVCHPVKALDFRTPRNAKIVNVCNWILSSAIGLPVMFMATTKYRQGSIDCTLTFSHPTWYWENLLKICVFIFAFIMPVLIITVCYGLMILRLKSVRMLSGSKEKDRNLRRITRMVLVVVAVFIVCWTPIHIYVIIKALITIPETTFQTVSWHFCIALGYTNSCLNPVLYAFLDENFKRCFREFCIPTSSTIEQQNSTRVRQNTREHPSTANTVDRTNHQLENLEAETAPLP

Row | SMILES | % DAMGO (0.1 μM) | % DAMGO (1 μM) | % DAMGO + BFNA | Concentration of FLNA-Binding Compound as Agonist 0.1 μM | Concentration of FLNA-Binding Compound as Agonist 1 μM | Concentration of FLNA-Binding Compound as Agonist 1 μM + BFNA | [35S]GTPγS binding, FLNA-Binding Compound as Agonist at 0.1 μM | [35S]GTPγS binding, FLNA-Binding Compound as Agonist at 1 μM | [35S]GTPγS binding, FLNA-Binding Compound as Agonist at 1 μM + BFNA | [35S]GTPγS binding, FLNA-Binding Compound as Agonist at 0.1 μM (0.1 μM compound, striatal membranes, Series C-2) | [35S]GTPγS binding, FLNA-Binding Compound as Agonist at 1 μM + BFNA (1 μM compound + 1 μM β-FNA (selective MOR antagonist), Series C-2) | [35S]GTPγS binding, FLNA-Binding Compound as Agonist at 1 μM (1 μM compound, striatal membranes, Series C-2)
1 | COc1ccc(C(=O)CC2c3c(cc4c(c3OC)OCO4)CC[N+]2(C)C)cc1C (stereo not drawn) [Compound B0021] | 75.9% | 104.7% | 123.6% | 126.9% | 256.4% | 42.9% |  |  |  |  |  | 
2 | OC(COc1ccc(Br)c(F)c1)CN1CCc2ccccc2C1 (stereo not drawn) [Compound A0057] | 79.6% | 83.3% | 112.3% | 124.2% | 192.1% | 44.8% |  |  |  |  |  | 
3 | COc1cc(S(=O)(=O)N2CCC3(CC2)OCCN3S(=O)(=O)c2cc(OC)c(OC)c(OC)c2)cc(OC)c1OC [Compound C0062] | 81.9% | 134.7% | 149.9% | 127.8% | 310.5% | 59.8% |  |  |  |  |  | 
4 | COc1ccc(S(=O)(=O)N2CCOC23CCN(CC2CC2)CC3)cc1 [Compound C0090M] | 137.7% | 155.2% | 118.8% |  |  |  | 237.0% | 341.0% | 41.0% |  |  | 
5 | O=C(c1ccc([N+](=O)[O-])cc1)N1CCC2(CC1)OCCN2S(=O)(=O)c1ccc([N+](=O)[O-])cc1 [Compound C0022] | 113.5% | 123.2% | 25.7% | 194.3% | 328.7% | 13.4% |  |  |  |  |  | 
6 | CC1CCC(C)C(OCC(O)CN2CC(C)OC(C)C2)C1 (stereo not drawn) [Compound A0022] | 90.0% | 80.9% | 53.7% | 154.1% | 216.0% | 28.0% |  |  |  |  |  | 
7 | COc1cc(F)ccc1C(=O)CC1c2c(cc3c(c2OC)OCO3)CC[N+]1(C)C (stereo not drawn) [Compound B0007] | 95.3% | 86.1% | 98.2% | 168.3% | 223.3% | 64.5% |  |  |  |  |  | 
8 | CC1CCC(C(C)C)C(OCC(O)CN2CCC2)C1 (stereo not drawn) [Compound A0015] | 64.8% | 56.2% | 120.0% | 110.9% | 150.1% | 62.5% |  |  |  |  |  | 
9 | COc1ccc(S(=O)(=O)N2CCOC23CCN(C(=O)OC(C)(C)C)CC3)cc1 [Compound C0043] | 103.8% | 110.9% | 501.8% |  |  |  |  |  |  | 175.4% | 83.3% | 242.6%
10 | CC1CCC(C(C)C)C(OCC(O)CN2CC(C)CC(C)C2)C1 (stereo not drawn) [Compound A0008] | 109.6% | 102.1% | 505.3% | 163.8% | 235.0% | 133.9% |  |  |  |  |  | 
11 | COc1ccc(CCC(=O)CC2c3c(cc4c(c3OC)OCO4)CC[N+]2(C)C)cc1OC (stereo not drawn) [Compound B0042] | 39.6% | 42.3% | 163.9% | 69.9% | 107.5% | 43.1% |  |  |  |  |  | 
12 | CC1CCC(C(C)C)C(OCC(O)Cn2cccc2)C1 (stereo not drawn) [Compound A0038] | 90.1% | 85.0% | 144.8% | 176.7% | 234.5% | 107.0% |  |  |  |  |  | 
13 | COc1ccc(S(=O)(=O)N2CCOC23CCN(S(=O)(=O)c2ccc(C(C)=O)cc2)CC3)cc1 [Compound C0047] | 98.1% | 88.5% | 182.0% | 142.2% | 206.1% | 80.1% |  |  |  |  |  | 
14 | COc1c2c(cc3c1C(CC(=O)c1ccncc1)[N+](C)(C)CC3)OCO2 (stereo not drawn) [Compound B0005] | 50.5% | 42.6% | 68.6% | 89.2% | 110.4% | 45.1% |  |  |  |  |  | 
15 | CC(=O)c1ccc(S(=O)(=O)N2CCC3(CC2)OC(CN(C)C)CN3S(=O)(=O)c2ccc(C(C)=O)cc2)cc1 (stereo not drawn) [Compound C0065] | 127.0% | 121.3% | 119.5% | 198.3% | 279.5% | 47.7% |  |  |  |  |  | 
16 | O=S(=O)(c1cccc(OC(F)(F)F)c1)N1CCC2(CC1)OCCN2S(=O)(=O)c1cccc(OC(F)(F)F)c1 [Compound C0005] | 105.4% | 85.1% | 319.4% | 180.4% | 227.2% | 166.4% |  |  |  |  |  | 
17 | CC1CCC(C(C)C)C(OCC(O)CN2CCN(CCCN3CCOCC3)CC2)C1 (stereo not drawn) [Compound A0026] | 79.7% | 70.7% | 459.3% | 140.7% | 179.8% | 120.8% |  |  |  |  |  | 
18 | O=C1CN(Cc2ccccc2)C2(CCN(S(=O)(=O)c3cc(Cl)c(O)c(Cl)c3)CC2)N1 [Compound C0139M] | 106.2% | 102.2% | 129.8% | 156.1% | 206.6% | 51.0% |  |  |  |  |  | 
19 | CCN(CC)CC(O)COC1CC(C)CCC1C(C)C (stereo not drawn) [Compound A0032] | 115.6% | 93.4% | 180.0% | 226.9% | 257.8% | 133.0% |  |  |  |  |  | 
